Results from patent publication US9328093B2, “Selective inhibitors of ubiquitin specific protease 7, the pharmaceutical compositions thereof and their therapeutic applications” (HYBRIGENICS SA, priority 2010, dated 2016).

Tests used:
[1] = tested on: HCT116 colon cancer cells; assay: HCT116 cell viability and proliferation assay (MTS); format: cell-based; conditions: Homo sapiens, HCT-116, 72 h, HCT116, 72 hours, read-out: Cell viability (MTS): HCT116 GI50 Day3
Description: HCT116 colon cancer cells were obtained from ATCC (American Type Culture Collection), and maintained in Mc Coy's 5A medium containing 10% FBS, 3 mM glutamine and 1% penicillin/streptomycin. Cells were incubated at 37° C. in a humidified atmosphere containing 5% CO2.
Cell viability was assayed using the MTS technique in 96-well culture plates (CellTiter 96® Aqueous Non-Radioactive Cell Proliferation Assay, Promega) according to the manufacturer's instructions. MTS (3-(4,5-dimethyl-thiazol-2-yl)-5-(3-carboxy-methoxyphenyl)-2-(4-sulfophenyl)-2H-tetra-zolium) is a MTT-derived tetrazolium that is reduced in metabolically active cells into a soluble, cell-permeant formazan. The amount of formazan, detected by its absorbance at 492 nm is proportional to the number of living, metabolically active cells.
10^3 HCT116 cells were seeded per well. 24 hours later, the medium was changed and the cells treated in triplicate with the concentrations of each compound from 100 μM to 50 nM. The compounds were diluted in 100% DMSO, whose final concentration on cells was kept at 0.5%.
Cells were incubated with the compounds for 72 hours, and their viability then assayed by the addition of MTS for 2 hours. Absorbance at 492 nm was measured directly from the 96-well culture plates. Gl50 (Growth Inhibition 50) concentrations for each compound were calculated using a sigmoidal variable slope fit (Prism 4.0, Graphpad Softwares). Values represent mean of three independent experiments.

[2] = biological target: T1, USP8 (Homo sapiens, UniProt P40818); assay: USP8 assay with GST-Ub52-Flag substrate (HTRF); format: biochemical; conditions: USP8 400 pM
T1 construct: His (from pFastBac-HT vector) (N); made in house; host or cells: Sf9 or High Five insect cells, baculovirus
T1 sequence (P40818 1-1118): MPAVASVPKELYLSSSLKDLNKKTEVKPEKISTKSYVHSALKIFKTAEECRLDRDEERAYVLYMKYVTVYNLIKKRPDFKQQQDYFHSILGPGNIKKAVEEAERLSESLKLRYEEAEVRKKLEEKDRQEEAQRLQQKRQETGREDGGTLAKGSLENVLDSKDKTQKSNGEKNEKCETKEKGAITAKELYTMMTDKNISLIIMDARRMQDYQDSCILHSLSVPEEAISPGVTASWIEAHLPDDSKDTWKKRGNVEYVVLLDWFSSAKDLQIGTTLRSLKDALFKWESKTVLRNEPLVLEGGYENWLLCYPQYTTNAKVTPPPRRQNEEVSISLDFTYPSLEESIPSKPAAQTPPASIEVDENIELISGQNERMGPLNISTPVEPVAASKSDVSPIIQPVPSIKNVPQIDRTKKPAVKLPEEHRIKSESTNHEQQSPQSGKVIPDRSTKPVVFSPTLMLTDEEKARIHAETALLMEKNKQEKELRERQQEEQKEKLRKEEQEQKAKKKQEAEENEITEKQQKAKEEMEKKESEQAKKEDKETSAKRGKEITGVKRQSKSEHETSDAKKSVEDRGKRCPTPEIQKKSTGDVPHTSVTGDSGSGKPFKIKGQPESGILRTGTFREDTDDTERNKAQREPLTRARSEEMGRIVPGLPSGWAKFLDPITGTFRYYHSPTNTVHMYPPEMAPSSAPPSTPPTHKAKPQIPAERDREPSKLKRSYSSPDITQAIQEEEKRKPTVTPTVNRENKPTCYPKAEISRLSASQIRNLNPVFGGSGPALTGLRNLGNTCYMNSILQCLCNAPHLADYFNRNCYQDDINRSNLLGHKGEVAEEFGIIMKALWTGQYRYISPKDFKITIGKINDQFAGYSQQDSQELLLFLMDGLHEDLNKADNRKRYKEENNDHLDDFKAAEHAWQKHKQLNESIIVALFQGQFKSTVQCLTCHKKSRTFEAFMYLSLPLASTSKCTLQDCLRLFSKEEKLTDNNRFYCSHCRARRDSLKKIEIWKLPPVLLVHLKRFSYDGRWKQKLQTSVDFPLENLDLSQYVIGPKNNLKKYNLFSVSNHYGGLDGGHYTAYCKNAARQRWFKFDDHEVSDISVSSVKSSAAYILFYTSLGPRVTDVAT
Description: (§1) For compounds 26 to 38, the in-vitro assays on USP7 and USP8 were carried out according to the following procedure
(§2) The present examples 26 to 38 makes it possible to validate the use of GST-Ub52-Flag in an assay based on the time-resolved measurement of fluorescence emitted by […] in homogenous medium.
(§3) The assay is carried out on multiwell assay plates. The plates are analyzed on a PHERAstar fluorimeter (BMG) after an overnight incubation at 4° C. (excitation 337 nm, emission 620 and 665 nm).
(§4) The reagents used were as follows: • Solution of USP7 at 200 pM and USP8 at 400 pM in 50 mM Tris HCl pH 7.6, Bovine Serum Albumin 0.05%, DTT 5 mM. • Anti-Flag-K (CIS bio international), solution at 0.2 μM in 0.8 M KF, 0.1 Bovine Serum Albumin, Tris HCl 25 mM pH 7.6. • Anti-GST antibody-XL665 conjugate (CIS bio international), solution at 2.6 μM in 0.8 M KF, 0.1% Bovine Serum Albumin, Tris HCl 25 mM pH 7.6. • GST-Ub52-flag solution at 14.75 μM & MBP_Ub52 at 37.7 μM are prepared by dilutions from the stock solution described above in 50 mM Tris HCl pH 7.6, EDTA 0.5 mM, Bovine Serum Albumin 0.05%, DTT 5 mM.
(§5) The enzyme reaction is carried out by mixing GST-Ub52-flag solution with 5 μl of USP7 solution (200 pM final) or 5 μl of USP8 (400 pM final). This mixture is incubated for one hour at room temperature on a multiwell assay plate. A 10 μl mixture of 5 μl of anti-Flag-K solution (0.2 μM) plus 5 μl of anti-GST-XL665 antibody (2.6 μM) is added to each well of the multiwell assay plate. The plate is read after an overnight incubation at 4° C. on a PHERAstar fluorimeter (BMG).
(§6) The decrease in the signal correlates with the increase in enzyme activity i.e. the cleavage of GST-Ub52-Flag substrate. The format used is therefore entirely suitable for a method of assaying an enzyme of the deubiquitinating type such as ubiquitin specific protease, but also for determining a modulator of this enzyme activity.
(§7) The same procedures as mentioned above for assaying the activity of enzymes of the deubiquitinating type are carried out but the various reaction mixtures are incubated with identical enzyme concentration, in the presence or absence of a test compounds 26 to 38. Data (mean values+/− standard deviation) were analyzed as % of control (no compound) and plotted as percentage versus the Log of the compound concentration using GraphPad (Prism).

[3] = biological target: T2, USP7 (Homo sapiens, UniProt Q93009); assay: USP7 assay with GST-Ub52-Flag substrate (HTRF); format: biochemical; conditions: USP7 200 pM
T2 construct: Full-length wild-type human USP7 and its catalytic mutant (cysteine 223 replaced by alanine, C223A) were produced as N-terminally His-tagged fusions; His (N); made in house; host or cells: Spodoptera frugiperda Sf9 (or High Five) insect cells, baculovirus pFastBac-HT-B
Description: as §1, §2, §3, §4, §5, §6, §7

| SMILES | GI50 [1] | IC50 [2] | IC50 [3] |
| --- | --- | --- | --- |
| Cc1cccc(CN2CCC(CNC(=O)c3ccc4c(Cl)c5c(nc4c3)CCCC5)CC2)c1 [Example 1, 9-Chloro-5,6,7,8-tetrahydro-acridine-3-carboxylic acid [1-(3-methyl-benzyl)-piperidin-4-ylmethyl]-amide] | 2 µM | – | – |
| CCN1CCCC1CNC(=O)c1ccc2c(Cl)c3c(nc2c1)CCCC3 (centres unmarked) [Example 2, 9-Chloro-5,6,7,8-tetrahydro-acridine-3-carboxylic acid (1-ethyl-pyrrolidin-2-ylmethyl)-amide] | 5 µM | – | – |
| CCCN(CCC)CCNC(=O)c1ccc2c(Cl)c3c(nc2c1)CCCC3 [Example 3, 9-Chloro-5,6,7,8-tetrahydro-acridine-3-carboxylic acid (2-dipropylamino-ethyl)-amide] | 3.5 µM | – | – |
| CCCCN(CC)CCNC(=O)c1ccc2c(Cl)c3c(nc2c1)CCCC3 [Example 4, 9-Chloro-5,6,7,8-tetrahydro-acridine-3-carboxylic acid [2-(butyl-ethyl-amino)-ethyl]-amide] | 4 µM | – | – |
| CCCN(CCC)CCCNC(=O)c1ccc2c(Cl)c3c(nc2c1)CCCC3 [Example 6, 9-Chloro-5,6,7,8-tetrahydro-acridine-3-carboxylic acid (3-dipropylamino-propyl)-amide] | 3.9 µM | – | – |
| CCN(CC)CCNC(=O)c1ccc2c(Cl)c3c(nc2c1)CCCC3 [Example 7, 9-Chloro-5,6,7,8-tetrahydro-acridine-3-carboxylic acid (2-diethylamino-ethyl)-amide] | 4.3 µM | – | – |
| CC1CCCC(C)N1CCCNC(=O)c1ccc2c(Cl)c3c(nc2c1)CCCC3 (centres unmarked) [Example 9, 9-Chloro-5,6,7,8-tetrahydro-acridine-3-carboxylic acid [3-(2,6-dimethyl-piperidin-1-yl)-propyl]-amide] | 3.6 µM | – | – |
| CN(C)CCNC(=O)c1ccc2c(Cl)c3c(nc2c1)CCCC3 [Example 11, 9-Chloro-5,6,7,8-tetrahydro-acridine-3-carboxylic acid (2-dimethylamino-ethyl)-amide] | 7.8 µM | – | – |
| O=C(c1ccc2c(Cl)c3c(nc2c1)CCCC3)N1CCCCCC1 [Example 12, Azepan-1-yl-(9-chloro-5,6,7,8-tetrahydro-acridin-3-yl)-methanone] | 20 µM | – | – |
| O=C(c1ccc2c(Cl)c3c(nc2c1)CCCC3)N1CCC(N2CCCCC2)CC1 [Example 16, [1,4′]Bipiperidinyl-1′-yl-(9-chloro-5,6,7,8-tetrahydro-acridin-3-yl)-methanone] | 13.5 µM | – | – |
| O=C(NCCN1CCCCCC1)c1ccc2c(Cl)c3c(nc2c1)CCCC3 [Example 27, N-(2-(azepan-1-yl)ethyl)-9-chloro-5,6,7,8-tetrahydroacridine-3-carboxamide] | 10 µM | > 200 µM | 15.4 µM |
| CN1CCC(CN2CCN(C(=O)c3ccc4c(Cl)c5c(nc4c3)CCCC5)CC2)CC1 [Example 29, (9-chloro-5,6,7,8-tetrahydroacridine-3-yl)(4-((1-methylpiperidin-4-yl)methyl)piperazin-1-yl)methanone] | 7.3 µM | > 200 µM | 8.5 µM |
| CN1CCC(N2CCN(C(=O)c3ccc4c(Cl)c5c(nc4c3)CCCC5)CC2)CC1 [Example 30, (9-chloro-5.6,7,8-tetrahydroacridine-3-yl)(4-(1-methylpiperidin-4-yl)piperazin-1-yl)methanone] | 12.5 µM | > 200 µM | 23 µM |

Further lines, results first:

| GI50 [1] | IC50 [2] | IC50 [3] | SMILES |
| --- | --- | --- | --- |
| 5.9 µM | – | – | O=C(NCCCN1CCCC1)c1ccc2c(Cl)c3c(nc2c1)CCCC3 [Example 8, 9-Chloro-5,6,7,8-tetrahydro-acridine-3-carboxylic acid (3-pyrrolidin-1-yl-propyl)-amide] |
| 5 µM | – | – | CCN(CC)CCCNC(=O)c1ccc2c(Cl)c3c(nc2c1)CCCC3 [Example 10, 9-Chloro-5,6,7,8-tetrahydro-acridine-3-carboxylic acid (3-diethylamino-propyl)-amide] |
| 5.9 µM | – | – | CCCN1CCN(CCCNC(=O)c2ccc3c(Cl)c4c(nc3c2)CCCC4)CC1 [Example 13, 9-Chloro-5,6,7,8-tetrahydro-acridine-3-carboxylic acid [3-(4-propyl-piperazin-1-yl)-propyl]-amide] |
| 7.4 µM | – | – | CN1CCN(CCCNC(=O)c2ccc3c(Cl)c4c(nc3c2)CCCC4)CC1 [Example 15, 9-Chloro-5,6,7,8-tetrahydro-acridine-3-carboxylic acid [3-(4-methyl-piperazin-1-yl)-propyl]-amide] |
| 8.8 µM | > 200 µM | 11.9 µM | O=C(NCCN1CCCCC1)c1ccc2c(Cl)c3c(nc2c1)CCCC3 [Example 28, 9-chloro-N-(2-(piperidin-1-yl)ethyl)-5,6,7,8-tetrahydroacridine-3-carboxamide] |
| 11.4 µM | > 200 µM | 24.5 µM | O=C(c1ccc2c(Cl)c3c(nc2c1)CCCC3)N1CCCCC1 [Example 31, (9-chloro-5,6,7,8-tetrahydroacridine-3-yl)(piperidin-1-yl)methanone] |
| 3.1 µM | > 200 µM | 17.6 µM | O=C(NCC1CCN(Cc2ccccc2)CC1)c1ccc2c(Cl)c3c(nc2c1)CCCC3 [Example 32, N-((1-benzylpiperidin-4-yl)methyl)-9--chloro-5,6,7,8-tetrahydroacridine-3-carboxamide] |
